Measurements taken from PMC4460250, “Systems Pharmacology Dissecting Holistic Medicine for Treatment of Complex Diseases: An Example Using Cardiocerebrovascular Diseases Treated by TCM” (Evidence-based Complementary and Alternative Medicine : eCAM, 2015).

Legend:
[1] = in vivo
[2] = in vivo; cited from earlier work

Compound | Class(High: HIA value ≥0.7; Low: HIA value < 0.7) [1] | HIA(Human Intestinal Absorption) [2]
CCCC(CCC)CCC[C@@H]1COCCN1CCO [Delmopinol(R)] | High (key: High: HIA value ≥0.7; Low: HIA value < 0.7) | 0.95
CCCC(CCC)CCC[C@H]1COCCN1CCO [Delmopinol(S)] | High (key: High: HIA value ≥0.7; Low: HIA value < 0.7) | 0.95
C[C@H](CN1CCOCC1)C(C(=O)N1CCCC1)(c1ccccc1)c1ccccc1 [Dextromoramide] | High (key: High: HIA value ≥0.7; Low: HIA value < 0.7) | 1
CC(=O)Oc1ccc2c3c1O[C@H]1[C@@H](OC(C)=O)C=C[C@H]4[C@@H](C2)N(C)CC[C@@]341 [Diacetylmorphine] | High (key: High: HIA value ≥0.7; Low: HIA value < 0.7) | 1
CCN(CC)[C@H](C)C(=O)c1ccccc1 [Diethylpropion(R)] | High (key: High: HIA value ≥0.7; Low: HIA value < 0.7) | 0.95
CCN(CC)[C@@H](C)C(=O)c1ccccc1 [Diethylpropion(S)] | High (key: High: HIA value ≥0.7; Low: HIA value < 0.7) | 0.95
COc1ccc2c3c1O[C@H]1[C@@H](O)CC[C@H]4[C@@H](C2)N(C)CC[C@@]341 [Dihydrocodeine] | High (key: High: HIA value ≥0.7; Low: HIA value < 0.7) | 0.88
COc1cc2nc(N3CCN(C(=O)[C@H]4COc5ccccc5O4)CC3)nc(N)c2cc1OC [Doxazosin(R)] | High (key: High: HIA value ≥0.7; Low: HIA value < 0.7) | 1
COc1cc2nc(N3CCN(C(=O)[C@@H]4COc5ccccc5O4)CC3)nc(N)c2cc1OC [Doxazosin(S)] | High (key: High: HIA value ≥0.7; Low: HIA value < 0.7) | 1
O=C(O)CN(CCN(CC(=O)O)CC(=O)O)CC(=O)O [Edetic_acid] | Low (key: High: HIA value ≥0.7; Low: HIA value < 0.7) | 0.05
NCCC[C@@](N)(C(=O)O)C(F)F [Eflornithine(R)] | Low (key: High: HIA value ≥0.7; Low: HIA value < 0.7) | 0.55
NCCC[C@](N)(C(=O)O)C(F)F [Eflornithine(S)] | Low (key: High: HIA value ≥0.7; Low: HIA value < 0.7) | 0.55
C[C@H](N[C@@H](CCc1ccccc1)C(=O)O)C(=O)N1CCC[C@H]1C(=O)O [Enalaprilat] | Low (key: High: HIA value ≥0.7; Low: HIA value < 0.7) | 0.25
CN1C[C@H](C(=O)N[C@]2(C)O[C@@]3(O)[C@@H]4CCCN4C(=O)[C@H](Cc4ccccc4)N3C2=O)C=C2c3cccc4[nH]cc(c34)C[C@H]21 [Ergotamine] | High (key: High: HIA value ≥0.7; Low: HIA value < 0.7) | 1
C[C@]12CC[C@@H]3c4ccc(OC(=O)N(CCCl)CCCl)cc4CC[C@H]3[C@@H]1CC[C@@H]2O [Estramustine] | High (key: High: HIA value ≥0.7; Low: HIA value < 0.7) | 0.75
CCO [Ethyl_alcohol] | High (key: High: HIA value ≥0.7; Low: HIA value < 0.7) | 1
CCN[C@H](C)Cc1cccc(C(F)(F)F)c1 [Fenfluramine(R)] | High (key: High: HIA value ≥0.7; Low: HIA value < 0.7) | 0.95
CCN[C@@H](C)Cc1cccc(C(F)(F)F)c1 [Fenfluramine(S)] | High (key: High: HIA value ≥0.7; Low: HIA value < 0.7) | 0.95
C[C@@H](C(=O)O)c1cccc(Oc2ccccc2)c1 [Fenoprofen(R)] | High (key: High: HIA value ≥0.7; Low: HIA value < 0.7) | 0.85
C[C@H](C(=O)O)c1cccc(Oc2ccccc2)c1 [Fenoprofen(S)] | High (key: High: HIA value ≥0.7; Low: HIA value < 0.7) | 0.85
CC(Cc1ccc(O)cc1)NCC(O)c1cc(O)cc(O)c1 (stereo not shown) [Fenoterol] | Low (key: High: HIA value ≥0.7; Low: HIA value < 0.7) | 0.6
O=C(NC[C@H]1CCCCN1)c1cc(OCC(F)(F)F)ccc1OCC(F)(F)F [Flecainide(R)] | High (key: High: HIA value ≥0.7; Low: HIA value < 0.7) | 0.81
O=C(NC[C@@H]1CCCCN1)c1cc(OCC(F)(F)F)ccc1OCC(F)(F)F [Flecainide(S)] | High (key: High: HIA value ≥0.7; Low: HIA value < 0.7) | 0.81
OCCN1CCN(CC/C=C2/c3ccccc3Sc3ccc(C(F)(F)F)cc32)CC1 [Flupentixol] | High (key: High: HIA value ≥0.7; Low: HIA value < 0.7) | 1

Compound | Class(High: HIA value ≥0.7; Low: HIA value < 0.7) [1] | HIA(Human Intestinal Absorption) [2]
CCN(CC)CCN1C(=O)CN=C(c2ccccc2F)c2cc(Cl)ccc21 [Flurazepam] | High (key: High: HIA value ≥0.7; Low: HIA value < 0.7) | 1
C[C@@H](C(=O)O)c1ccc(-c2ccccc2)c(F)c1 [Flurbiprofen(R)] | High (key: High: HIA value ≥0.7; Low: HIA value < 0.7) | 0.95
C[C@H](C(=O)O)c1ccc(-c2ccccc2)c(F)c1 [Flurbiprofen(S)] | High (key: High: HIA value ≥0.7; Low: HIA value < 0.7) | 0.95
NCC1(CC(=O)O)CCCCC1 [Gabapentin] | Low (key: High: HIA value ≥0.7; Low: HIA value < 0.7) | 0.59
COc1ccc(CCN(C)CCC[C@](C#N)(c2cc(OC)c(OC)c(OC)c2)C(C)C)cc1OC [Gallopamil(R)] | High (key: High: HIA value ≥0.7; Low: HIA value < 0.7) | 0.97
COc1ccc(CCN(C)CCC[C@@](C#N)(c2cc(OC)c(OC)c(OC)c2)C(C)C)cc1OC [Gallopamil(S)] | High (key: High: HIA value ≥0.7; Low: HIA value < 0.7) | 0.97
COc1c(N2CCN[C@H](C)C2)c(F)cc2c(=O)c(C(=O)O)cn(C3CC3)c12 [Gatifloxacin(R)] | High (key: High: HIA value ≥0.7; Low: HIA value < 0.7) | 0.96
COc1c(N2CCN[C@@H](C)C2)c(F)cc2c(=O)c(C(=O)O)cn(C3CC3)c12 [Gatifloxacin(S)] | High (key: High: HIA value ≥0.7; Low: HIA value < 0.7) | 0.96
CN[C@@H]1[C@@H](O)[C@@H](O[C@@H]2[C@@H](O)[C@H](O[C@H]3O[C@H]([C@@H](C)N)CC[C@H]3N)[C@@H](N)C[C@H]2N)OC[C@]1(C)O [GentamicinC2(R)] | Low (key: High: HIA value ≥0.7; Low: HIA value < 0.7) | 0.01
NCC(=O)O [Glycine] | High (key: High: HIA value ≥0.7; Low: HIA value < 0.7) | 1
N=C(N)NC[C@@H]1COC2(CCCCC2)O1 [Guanadrel(R)] | High (key: High: HIA value ≥0.7; Low: HIA value < 0.7) | 0.8
N=C(N)NC[C@H]1COC2(CCCCC2)O1 [Guanadrel(S)] | High (key: High: HIA value ≥0.7; Low: HIA value < 0.7) | 0.8
N=C(N)NC[C@@H]1COc2ccccc2O1 [Guanoxan(R)] | Low (key: High: HIA value ≥0.7; Low: HIA value < 0.7) | 0.5
N=C(N)NC[C@H]1COc2ccccc2O1 [Guanoxan(S)] | Low (key: High: HIA value ≥0.7; Low: HIA value < 0.7) | 0.5
CN1C(=O)NC(=O)C(C)(C2=CCCCC2)C1=O (stereo not shown) [Hexobarbital] | High (key: High: HIA value ≥0.7; Low: HIA value < 0.7) | 0.95
C[C@]12CCC(=O)C=C1CC[C@@H]1[C@@H]2[C@@H](O)C[C@@]2(C)[C@H]1CC[C@]2(O)C(=O)CO [Hydrocortisone] | High (key: High: HIA value ≥0.7; Low: HIA value < 0.7) | 0.91
CCN(CCO)CCC[C@@H](C)Nc1ccnc2cc(Cl)ccc12 [Hydroxychloroquine(R)] | High (key: High: HIA value ≥0.7; Low: HIA value < 0.7) | 0.9
CCN(CCO)CCC[C@H](C)Nc1ccnc2cc(Cl)ccc12 [Hydroxychloroquine(S)] | High (key: High: HIA value ≥0.7; Low: HIA value < 0.7) | 0.9
CCCCCCCN(CC)CCC[C@@H](O)c1ccc(NS(C)(=O)=O)cc1 [Ibutilide(R)] | High (key: High: HIA value ≥0.7; Low: HIA value < 0.7) | 0.82
CCCCCCCN(CC)CCC[C@H](O)c1ccc(NS(C)(=O)=O)cc1 [Ibutilide(S)] | High (key: High: HIA value ≥0.7; Low: HIA value < 0.7) | 0.82
CC[C@@H](C(=O)O)c1ccc(N2Cc3ccccc3C2=O)cc1 [Indobufen(R)] | High (key: High: HIA value ≥0.7; Low: HIA value < 0.7) | 1
CC[C@H](C(=O)O)c1ccc(N2Cc3ccccc3C2=O)cc1 [Indobufen(S)] | High (key: High: HIA value ≥0.7; Low: HIA value < 0.7) | 1
CC(C)NC[C@H](O)c1ccc(O)c(O)c1 [Isoproterenol(R)] | High (key: High: HIA value ≥0.7; Low: HIA value < 0.7) | 0.85
